The values below come from patent publication US20250026778A1 (TIUMBIO CO., LTD., priority 2021, published 2025).

T1 sequence (P17931 whole entry): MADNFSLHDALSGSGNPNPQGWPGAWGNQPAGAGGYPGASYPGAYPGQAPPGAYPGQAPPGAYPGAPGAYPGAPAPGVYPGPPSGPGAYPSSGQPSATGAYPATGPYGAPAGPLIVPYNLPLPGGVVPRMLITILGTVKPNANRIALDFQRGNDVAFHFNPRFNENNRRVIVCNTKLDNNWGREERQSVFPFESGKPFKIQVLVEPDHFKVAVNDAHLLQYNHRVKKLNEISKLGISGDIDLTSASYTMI

The first assay addresses T1, his-galectin-3 (Homo sapiens, UniProt P17931).
T1 construct: purchased Abcam
The experiment in a line: TR-FRET assay (in vitro galectin-3 binding inhibitory activity test). To be noted: Table 2; compound at 20 μM; 60 nM his-galectin-3, 15 nM biotin-ASF; read-out: % Inhibitory activity (at 20 μM). Summed up:
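Compound is premixed with his-galectin-3 (60 nM final), then biotin-ASF (15 nM), Tb anti-His antibody (2 nM) and streptavidin-d2 (20 nM) are added. After at least 3.5 hours at RT in HEPES/NaCl buffer with Tween 20 and BSA, TR-FRET is read at 615/665 nm. DMSO serves as the uninhibited control, ASF omission as background.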
For orientation: TR-FRET usually uses a lanthanide donor and a delayed reading to cut background.
As for `OC[C@H]1O[C@]2(OCC[C@H]2/N=C\c2c(O)ccc3ccccc23)[C@H](O)[C@@H](n2cc(-c3cc(F)c(F)c(F)c3)nn2)[C@H]1O` [Compound A202, (4R,5S,7R,8R,9S,10R)-7-(hydroxymethyl)-4-((Z)-((2-hydroxynaphthalen-1-yl)methylene)amino)-9-(4-(3,4,5-trifluorophenyl)-1H-1,2,3-triazol-1-yl)-1,6-dioxaspiro[4.5]decane-8,10-diol], the inhibition at 20 µM was below 25%. Still for that read-out and setting: next, `OC[C@H]1O[C@]2(OCC[C@H]2/N=C\c2ccc3ccccc3c2O)[C@H](O)[C@@H](n2cc(-c3cc(F)c(F)c(F)c3)nn2)[C@H]1O` [Compound A203, (4R,5S,7R,8R,9S,10R)-7-(hydroxymethyl)-4-((Z)-((1-hydroxynaphthalen-2-yl)methylene)amino)-9-(4-(3,4,5-trifluorophenyl)-1H-1,2,3-triazol-1-yl)-1,6-dioxaspiro[4.5]decane-8,10-diol]: 25 to 50%; `OC[C@H]1O[C@]2(OCC[C@H]2Nc2ccccc2)[C@H](O)[C@@H](n2cc(-c3cc(F)c(F)c(F)c3)nn2)[C@H]1O` [Compound A206, (4R,5S,7R,8R,9S,10R)-7-(hydroxymethyl)-4-(phenylamino)-9-(4-(3,4,5-trifluorophenyl)-1H-1,2,3-triazol-1-yl)-1,6-dioxaspiro[4.5]decane-8,10-diol]: above 75%; `O=C(N[C@@H]1CCO[C@]12O[C@H](CO)[C@H](O)[C@H](n1cc(-c3cc(F)c(F)c(F)c3)nn1)[C@H]2O)c1ccnc2ccccc12` [Compound A207, N-((4R,5S,7R,8R,9S,10R)-8,10-dihydroxy-7-(hydroxymethyl)-9-(4-(3,4,5-trifluorophenyl)-1H-1,2,3-triazol-1-yl)-1,6-dioxaspiro[4.5]decan-4-yl)quinoline-4-carboxamide]: above 75%. Still for that read-out and setting: next, `O=C(N[C@@H]1CCO[C@]12O[C@H](CO)[C@H](O)[C@H](n1cc(-c3cc(F)c(F)c(F)c3)nn1)[C@H]2O)c1cccc2ncc(Br)cc12` [Compound A208, 3-bromo-N-((4R,5S,7R,8R,9S,10R)-8,10-dihydroxy-7-(hydroxymethyl)-9-(4-(3,4,5-trifluorophenyl)-1H-1,2,3-triazol-1-yl)-1,6-dioxaspiro[4.5]decan-4-yl)quinoline-5-carboxamide]: above 75%.

As to `O=C(N[C@@H]1CCO[C@]12O[C@H](CO)[C@H](O)[C@H](n1cc(-c3cc(F)c(F)c(F)c3)nn1)[C@H]2O)c1ccnc2ccc(Br)cc12` [Compound A209, 6-bromo-N-((4R,5S,7R,8R,9S,10R)-8,10-dihydroxy-7-(hydroxymethyl)-9-(4-(3,4,5-trifluorophenyl)-1H-1,2,3-triazol-1-yl)-1,6-dioxaspiro[4.5]decan-4-yl)quinoline-4-carboxamide], the inhibition at 20 µM was above 75%.

Regarding `O=C(N[C@@H]1CCO[C@]12O[C@H](CO)[C@H](O)[C@H](n1cc(-c3cc(F)c(F)c(F)c3)nn1)[C@H]2OCc1nn[nH]n1)c1ccc(F)c2ccccc12` [Compound A210, N-((4R,5S,7R,8R,9S,10R)-10-((2H-tetrazol-5-yl)methoxy)-8-hydroxy-7-(hydroxymethyl)-9-(4-(3,4,5-trifluorophenyl)-1H-1,2,3-triazol-1-yl)-1,6-dioxaspiro[4.5]decan-4-yl)-4-fluoro-1-naphthamide], the inhibition at 20 µM was above 75%. Same read-out and setting: the same measure for `O=C(N[C@@H]1CCO[C@]12O[C@H](CO)[C@H](O)[C@H](n1cc(-c3cc(F)c(F)c(F)c3)nn1)[C@H]2O)c1cccc2ccc(Br)cc12` [Compound A211, 7-bromo-N-((4R,5S,7R,8R,9S,10R)-8,10-dihydroxy-7-(hydroxymethyl)-9-(4-(3,4,5-trifluorophenyl)-1H-1,2,3-triazol-1-yl)-1,6-dioxaspiro[4.5]decan-4-yl)-1-naphthamide]: above 75%; for `O=C(N[C@@H]1CCO[C@]12O[C@H](CO)[C@H](O)[C@H](n1cc(-c3cc(F)c(F)c(F)c3)nn1)[C@H]2O)c1cccc2ncccc12` [Compound A212, N-((4R,5S,7R,8R,9S,10R)-8,10-dihydroxy-7-(hydroxymethyl)-9-(4-(3,4,5-trifluorophenyl)-1H-1,2,3-triazol-1-yl)-1,6-dioxaspiro[4.5]decan-4-yl)quinoline-5-carboxamide]: above 75%. Still for that read-out and setting: the same measure for `O=C(N[C@@H]1CCO[C@]12O[C@H](CO)[C@H](O)[C@H](n1cc(-c3cc(F)c(F)c(F)c3)nn1)[C@H]2O)c1ccc(Br)c2ncccc12` [Compound A213, 8-bromo-N-((4R,5S,7R,8R,9S,10R)-8,10-dihydroxy-7-(hydroxymethyl)-9-(4-(3,4,5-trifluorophenyl)-1H-1,2,3-triazol-1-yl)-1,6-dioxaspiro[4.5]decan-4-yl)quinoline-5-carboxamide]: 50 to 75%; for `CC1CO[C@@]2(C1)O[C@H](CO)[C@H](O)[C@H](n1cc(-c3cc(F)c(F)c(F)c3)nn1)[C@H]2O` (stereo partly drawn) [Compound A214, (5S,7R,8R,9S,10R)-7-(hydroxymethyl)-3-methyl-9-(4-(3,4,5-trifluorophenyl)-1H-1,2,3-triazol-1-yl)-1,6-dioxaspiro[4.5]decane-8,10-diol]: 50 to 75%. The same measure, in the same setting: the same measure for `O=C(Nc1cccc(Cl)c1)N[C@@H]1CCO[C@]12O[C@H](CO)[C@H](O)[C@H](n1cc(-c3cc(F)c(F)c(F)c3)nn1)[C@H]2O` [Compound A215, 1-(3-chlorophenyl)-3-((4R,5S,7R,8R,9S,10R)-8,10-dihydroxy-7-(hydroxymethyl)-9-(4-(3,4,5-trifluorophenyl)-1H-1,2,3-triazol-1-yl)-1,6-dioxaspiro[4.5]decan-4-yl)urea]: above 75%; for `O=C(N[C@@H]1CCO[C@]12O[C@H](CO)[C@H](O)[C@H](n1cc(-c3cc(F)c(F)c(F)c3)nn1)[C@H]2O)c1cccc2ncc(F)cc12` [Compound A216, N-((4R,5S,7R,8R,9S,10R)-8,10-dihydroxy-7-(hydroxymethyl)-9-(4-(3,4,5-trifluorophenyl)-1H-1,2,3-triazol-1-yl)-1,6-dioxaspiro[4.5]decan-4-yl)-3-fluoroquinoline-5-carboxamide]: above 75%. `O=C(N[C@@H]1CCO[C@]12O[C@H](CO)[C@H](O)[C@H](n1cc(-c3cc(F)c(F)c(F)c3)nn1)[C@H]2O)c1cccc2ncc(Cl)cc12` [Compound A217, 3-chloro-N-((4R,5S,7R,8R,9S,10R)-8,10-dihydroxy-7-(hydroxymethyl)-9-(4-(3,4,5-trifluorophenyl)-1H-1,2,3-triazol-1-yl)-1,6-dioxaspiro[4.5]decan-4-yl)quinoline-5-carboxamide]: the inhibition at 20 µM was above 75%. On the same count and under the same terms, next, `Cc1oc2ccccc2c1C(=O)N[C@@H]1CCO[C@]12O[C@H](CO)[C@H](O)[C@H](n1cc(-c3cc(F)c(F)c(F)c3)nn1)[C@H]2O` [Compound A218, N-((4R,5S,7R,8R,9S,10R)-8,10-dihydroxy-7-(hydroxymethyl)-9-(4-(3,4,5-trifluorophenyl)-1H-1,2,3-triazol-1-yl)-1,6-dioxaspiro[4.5]decan-4-yl)-2-methylbenzofuran-3-carboxamide]: above 75%. Still for that read-out and setting: next, `O=C(N[C@@H]1CCO[C@]12O[C@H](CO)[C@H](O)[C@H](n1cc(-c3cc(F)c(F)c(F)c3)nn1)[C@H]2O)c1c[nH]c2ccc(Cl)cc12` [Compound A219, 5-chloro-N-((4R,5S,7R,8R,9S,10R)-8,10-dihydroxy-7-(hydroxymethyl)-9-(4-(3,4,5-trifluorophenyl)-1H-1,2,3-triazol-1-yl)-1,6-dioxaspiro[4.5]decan-4-yl)-1H-indole-3-carboxamide]: 50 to 75%; `OC[C@H]1O[C@@]2(CCCN(c3cccc4ccccc34)C2)[C@H](O)[C@@H](n2cc(-c3cc(F)c(F)c(F)c3)nn2)[C@H]1O` [Compound A220, (2R,3R,4S,5R,6R)-2-(hydroxymethyl)-8-(naphthalen-1-yl)-4-(4-(3,4,5-trifluorophenyl)-1H-1,2,3-triazol-1-yl)-1-oxa-8-azaspiro[5.5]undecane-3,5-diol]: below 25%.

Turning to `OC[C@H]1O[C@@]2(CCCN(c3ccccc3Cl)C2)[C@H](O)[C@@H](n2cc(-c3cc(F)c(F)c(F)c3)nn2)[C@H]1O` [Compound A222, (2R,3R,4S,5R,6R)-8-(2-chlorophenyl)-2-(hydroxymethyl)-4-(4-(3,4,5-trifluorophenyl)-1H-1,2,3-triazol-1-yl)-1-oxa-8-azaspiro[5.5]undecane-3,5-diol], the inhibition at 20 µM is below 25%. On the same count and under the same terms, next, `OC[C@H]1O[C@@]2(CCCN(c3cccc(Cl)c3)C2)[C@H](O)[C@@H](n2cc(-c3cc(F)c(F)c(F)c3)nn2)[C@H]1O` [Compound A223, (2R,3R,4S,5R,6R)-8-(3-chlorophenyl)-2-(hydroxymethyl)-4-(4-(3,4,5-trifluorophenyl)-1H-1,2,3-triazol-1-yl)-1-oxa-8-azaspiro[5.5]undecane-3,5-diol]: below 25%.

The assay is the same for the next values; noted with them: Table 3, found values; compound at 20 μM; 60 nM his-galectin-3, 15 nM biotin-ASF; read-out: % Inhibitory activity (at 20 μM).
For `O=C(N[C@@H]1CCO[C@]12O[C@H](CO)[C@H](O)[C@H](n1cc(-c3cc(F)c(F)c(F)c3)nn1)[C@H]2OCc1nn[nH]n1)c1ccc(F)c2ccccc12` [Compound A210, N-((4R,5S,7R,8R,9S,10R)-10-((2H-tetrazol-5-yl)methoxy)-8-hydroxy-7-(hydroxymethyl)-9-(4-(3,4,5-trifluorophenyl)-1H-1,2,3-triazol-1-yl)-1,6-dioxaspiro[4.5]decan-4-yl)-4-fluoro-1-naphthamide], the inhibition at 20 µM worked out at 90.6%.

The same assay, now with this note: read-out: % Inhibitory activity (at 20 μM), Table 2; compound at 20 μM; 60 nM his-galectin-3, 15 nM biotin-ASF.
For the compound `OC[C@H]1O[C@]2(OCC[C@H]2n2cc(-c3ccccc3Cl)nn2)[C@H](O)[C@@H](n2cc(-c3cc(F)c(F)c(F)c3)nn2)[C@H]1O` [Compound A204, (4R,5S,7R,8R,9S,10R)-4-(4-(2-chlorophenyl)-1H-1,2,3-triazol-1-yl)-7-(hydroxymethyl)-9-(4-(3,4,5-trifluorophenyl)-1H-1,2,3-triazol-1-yl)-1,6-dioxaspiro[4.5]decane-8,10-diol], the inhibition at 20 µM is below 25%.

As to `OC[C@H]1O[C@]2(OCC[C@H]2n2cc(-c3cccc(Cl)c3)nn2)[C@H](O)[C@@H](n2cc(-c3cc(F)c(F)c(F)c3)nn2)[C@H]1O` [Compound A205, (4R,5S,7R,8R,9S,10R)-4-(4-(3-chlorophenyl)-1H-1,2,3-triazol-1-yl)-7-(hydroxymethyl)-9-(4-(3,4,5-trifluorophenyl)-1H-1,2,3-triazol-1-yl)-1,6-dioxaspiro[4.5]decane-8,10-diol], the inhibition at 20 µM was below 25%.
